Holding throughout (assay): DPP-IV Inhibition Screening Assay
The target in one test is Dipeptidyl peptidase 9 (Homo sapiens, UniProt Q86TI2). On the procedure:
(§1) DPP-IV inhibition was measured by DPP-IV inhibitor screening assay kit (Cayman Chemical Company, Item No. 700210) following the manufacturer's instructions. Briefly, solutions of test compounds at varying concentrations were prepared in dimethyl sulfoxide (DMSO) and then diluted into assay buffer. Human recombinant DPP-IV was added to the dilutions and preincubated for 30 min at 37 °C before the reaction was initiated by the addition of fluorogenic substrate solution AMC (Gly-Pro-Aminomethylcoumarin). Human recombinant DPP-8 or DPP-9 was added to the dilutions and preincubated for 10 min at 22 °C before the reaction was initiated by the addition of fluorogenic DPP substrate. The kinetics of the reaction wasmonitored (excitation at 380 nm, emission at 460 nm).

In another test the target is Dipeptidyl peptidase 8 (Homo sapiens, UniProt Q6V1X1). How it is done: as §1
Chain of Dipeptidyl peptidase 8 (Q6V1X1 whole entry): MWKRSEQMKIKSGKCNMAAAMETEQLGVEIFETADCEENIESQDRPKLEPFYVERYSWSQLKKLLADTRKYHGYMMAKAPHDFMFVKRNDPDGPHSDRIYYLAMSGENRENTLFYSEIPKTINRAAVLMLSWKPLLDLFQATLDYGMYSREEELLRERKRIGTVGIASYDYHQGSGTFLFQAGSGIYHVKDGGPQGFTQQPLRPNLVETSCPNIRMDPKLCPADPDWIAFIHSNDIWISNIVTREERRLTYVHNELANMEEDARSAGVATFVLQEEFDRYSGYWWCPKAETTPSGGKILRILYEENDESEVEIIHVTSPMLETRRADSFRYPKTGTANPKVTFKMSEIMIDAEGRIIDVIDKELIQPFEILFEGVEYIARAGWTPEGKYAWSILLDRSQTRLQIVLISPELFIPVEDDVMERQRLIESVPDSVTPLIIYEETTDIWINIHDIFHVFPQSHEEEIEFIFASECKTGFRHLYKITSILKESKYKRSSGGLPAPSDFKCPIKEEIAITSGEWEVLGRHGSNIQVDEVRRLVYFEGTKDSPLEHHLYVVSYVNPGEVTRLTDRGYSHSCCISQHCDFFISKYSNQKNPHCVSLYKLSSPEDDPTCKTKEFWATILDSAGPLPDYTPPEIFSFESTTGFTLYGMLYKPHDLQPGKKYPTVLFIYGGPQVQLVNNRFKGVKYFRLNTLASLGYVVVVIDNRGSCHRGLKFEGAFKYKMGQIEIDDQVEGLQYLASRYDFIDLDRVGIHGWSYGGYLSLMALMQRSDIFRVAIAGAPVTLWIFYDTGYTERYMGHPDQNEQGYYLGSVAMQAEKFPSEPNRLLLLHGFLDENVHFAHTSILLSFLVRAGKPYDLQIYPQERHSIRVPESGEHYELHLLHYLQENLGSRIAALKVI
For test [1], the target named is Dipeptidyl peptidase 4 [K6R,T557I] (Homo sapiens, UniProt P27487, K6R/T557I). How it is done:
as §1

This passage reports IC50 results from BindingDB's records for doi:10.1111/cbdd.12663 (West China Hospital, 2016).

Where only a bound is given, the exact number is not on record here.

Chain of Dipeptidyl peptidase 4 [K6R,T557I] (P27487 whole entry K6R/T557I/D663E): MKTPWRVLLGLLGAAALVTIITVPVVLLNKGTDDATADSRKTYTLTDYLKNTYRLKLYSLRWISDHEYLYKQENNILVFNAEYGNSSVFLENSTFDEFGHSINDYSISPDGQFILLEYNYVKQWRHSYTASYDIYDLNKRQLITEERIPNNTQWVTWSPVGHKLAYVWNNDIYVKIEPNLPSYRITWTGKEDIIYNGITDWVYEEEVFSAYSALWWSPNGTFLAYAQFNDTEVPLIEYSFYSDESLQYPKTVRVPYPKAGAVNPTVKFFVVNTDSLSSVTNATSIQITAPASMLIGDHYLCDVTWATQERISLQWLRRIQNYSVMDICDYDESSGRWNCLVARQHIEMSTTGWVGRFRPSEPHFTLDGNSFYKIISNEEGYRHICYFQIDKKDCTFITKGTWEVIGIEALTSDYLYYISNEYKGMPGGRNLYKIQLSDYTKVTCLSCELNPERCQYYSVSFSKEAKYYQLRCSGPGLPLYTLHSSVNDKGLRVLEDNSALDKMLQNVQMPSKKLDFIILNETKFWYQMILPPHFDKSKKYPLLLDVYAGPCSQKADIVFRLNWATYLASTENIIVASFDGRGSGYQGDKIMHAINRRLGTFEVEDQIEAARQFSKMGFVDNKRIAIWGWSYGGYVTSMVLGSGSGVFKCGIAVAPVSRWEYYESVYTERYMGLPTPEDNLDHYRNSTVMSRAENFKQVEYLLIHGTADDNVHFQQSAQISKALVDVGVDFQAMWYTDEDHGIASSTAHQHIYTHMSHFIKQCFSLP
Chain of Dipeptidyl peptidase 9 (Q86TI2 whole entry): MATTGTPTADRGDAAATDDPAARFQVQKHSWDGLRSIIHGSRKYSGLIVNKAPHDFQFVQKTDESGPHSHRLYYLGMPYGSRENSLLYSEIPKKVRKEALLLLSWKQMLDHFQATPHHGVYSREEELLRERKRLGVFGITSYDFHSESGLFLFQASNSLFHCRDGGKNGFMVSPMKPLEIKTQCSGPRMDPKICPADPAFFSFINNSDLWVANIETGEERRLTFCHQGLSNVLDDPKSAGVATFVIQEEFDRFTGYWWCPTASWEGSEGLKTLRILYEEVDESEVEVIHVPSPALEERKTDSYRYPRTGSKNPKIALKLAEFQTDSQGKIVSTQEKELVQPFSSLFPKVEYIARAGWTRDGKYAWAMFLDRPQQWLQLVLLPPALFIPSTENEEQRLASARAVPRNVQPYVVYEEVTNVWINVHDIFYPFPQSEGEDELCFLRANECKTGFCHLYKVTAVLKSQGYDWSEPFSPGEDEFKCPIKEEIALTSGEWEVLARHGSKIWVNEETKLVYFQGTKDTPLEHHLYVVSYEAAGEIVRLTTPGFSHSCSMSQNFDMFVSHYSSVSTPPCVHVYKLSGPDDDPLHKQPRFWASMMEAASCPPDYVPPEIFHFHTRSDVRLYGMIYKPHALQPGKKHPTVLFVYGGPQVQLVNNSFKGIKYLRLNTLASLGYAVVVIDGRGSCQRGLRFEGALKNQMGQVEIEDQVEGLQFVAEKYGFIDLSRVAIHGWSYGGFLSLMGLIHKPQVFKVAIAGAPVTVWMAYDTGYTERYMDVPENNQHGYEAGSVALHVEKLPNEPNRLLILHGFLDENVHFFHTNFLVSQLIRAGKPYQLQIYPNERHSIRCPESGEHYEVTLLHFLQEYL

`CC(C)=CCn1c(N2CCC[C@@H](N)C2)nc2c1c(=O)n(Cc1nc3ccccc3s1)c(=O)n2C` [(R)-43]: the IC50 at Dipeptidyl peptidase 9 is greater than 100 µM; on Dipeptidyl peptidase 8, greater than 100 µM; in test [1] it was 0.0362 µM.

In the case of `CC(C)=CCn1c(N2CCC[C@@H](N)C2)nc2c1c(=O)n(Cc1ccccc1C#N)c(=O)n2C` [(R)-40], the IC50 on Dipeptidyl peptidase 9 was greater than 100 µM; against Dipeptidyl peptidase 8 it was greater than 100 µM; in test [1], 0.0235 µM.

For the compound `CC(C)=CCn1c(N2CCC[C@H](N)C2)nc2c1c(=O)n(Cc1nc3ccccc3s1)c(=O)n2C` [(S)-43], the IC50 against Dipeptidyl peptidase 9 was greater than 100 µM; on Dipeptidyl peptidase 8 it was greater than 100 µM; in test [1], 0.0369 µM.

With `CC(C)=CCn1c(N2CCC[C@H](N)C2)nc2c1c(=O)n(Cc1ccccc1C#N)c(=O)n2C` [(S)-40], the values for the IC50 (against Dipeptidyl peptidase 9; on Dipeptidyl peptidase 8; in test [1]) were greater than 100 µM, greater than 100 µM and 0.108 µM, respectively.
